Laboratory results taken from patent US8268797B2, “Combination therapy for the treatment of cancer” (Isis Pharmaceuticals, Inc., priority 2008, dated 2012).

Legend:
A549 xenografts = experiment: A549 human non-small cell lung cancer xenograft tumor volume in athymic nude mice; type: in vivo; conditions: for A549 Xenograft Tumor Volume, Mean / Percent Reduction of A549 Tumor Size on Day 75: ASO 50 mg/kg iv, cisplatin 5 mg/kg IP weekly; for A549 Xenograft Tumor Volume, Mean: nude mice; for Percent Reduction of A549 Tumor Size on Day 75: negative number indicates reduction vs. control
Method: (§1) Xenograft studies are carried out as described in Graff et al. (2005) Cancer Res. 65:7462-7469. Five million human cancer cells representing non-small cell lung cancer (line A549; ATCC, accession no. CCL-185; line NCI-H1975; ATCC, accession no. CRL-5908) are injected subcutaneously in the flank of 6-8 week old, athymic nude mice (Harlan, Indianapolis, Ind.) in a 1:1 mixture of serum-free growth medium and matrigel (Becton Dickinson, Bedford, Mass., catalogue #354234). Mice are monitored daily for palpable tumors.
(§2) When tumor volumes reach ˜50-100 mm^3, mice are randomized to treatment groups (Graff et al. (2007) J. Clin. Invest. 117:2638-48). Body weight is monitored each time tumors are measured.
(§3) For treatment, all mice are injected intravenously with the eIF-4E ASO in saline in a total volume of 200 μl. The ASO consists of the nucleotide sequence 5′-[…]-3′ (SEQ ID NO:1), in which every internucleoside linkage is a phosphorothioate linkage, nucleotides 1-5 and 16-20 reading from the 5′ end to the 3′ end each comprise a 2′-O-(2-methoxyethyl) sugar, nucleotides 6-15 are 2′-deoxynucleotides, every cytosine residue is a 5-methylcytosine, and which is in the form of a sodium salt. The mice are first injected with an initial loading dose of 50 mg/kg ASO for 3 consecutive days, followed by 50 mg/kg thrice weekly thereafter.
(§4) Cisplatin dosing begins 8 days after the first ASO dose to allow time for reduction of eIF-4E protein expression. Mice are dosed intraperitoneally (IP) with 2 or 5 mg/kg cisplatin (Teva Parenteral Medicines, Inc.; 0703-5748-11) from an infusion concentrate diluted in saline, in a volume of 200 μl once weekly for 65 days. One mL of infusion concentrate (1 mg/mL) contains 1 mg cisplatin, 9 mg sodium chloride, hydrochloric acid and/or sodium hydroxide to pH 3.2-4.4, and water for injection.
(§5) The vehicle only group is dosed with saline.
(§6) Tumor volumes are calculated measuring the largest (L) and smallest (W) diameters with a caliper. The formula is: Volume=L×W^2×0.534. Tumor volume data are transformed to a log scale to equalize variance across time and treatment groups. The log volume data are analyzed with a two-way repeated measures analysis of variance by time and treatment using SAS PROC MIXED software (SAS Institute Inc, Cary, N.C.) using the spatial power covariance structure. Treatment groups are compared to the control group at each time point and overall. The data may be plotted as means and standard errors for each treatment group versus time. Additivity is assessed in two ways: (1) as an overall interaction effect between the ASO and cisplatin in the repeated measures analysis, and (2) by using the Bliss Independence method on the final day of the study (C. I. Bliss (1939) Ann. AppL Biol. 26:585-615). These two methods yield the same results.

H1975 xenografts = experiment: H1975 human non-small cell lung cancer xenograft tumor volume in athymic nude mice; type: in vivo; conditions: for H1975 Xenograft Tumor Volume, Mean / Percent Reduction of H1975 Tumor Size on Day 43: ASO 50 mg/kg iv, cisplatin 5 mg/kg IP weekly; for H1975 Xenograft Tumor Volume, Mean: nude mice; for Percent Reduction of H1975 Tumor Size on Day 43: negative number indicates reduction vs. control
Method: as §1, §2, §3, §4, §5, §6

Compound	A549 Xenograft Tumor Volume, Mean (A549 xenografts; Day 11) [mm^3]	A549 Xenograft Tumor Volume, Mean (A549 xenografts; Day 14) [mm^3]	A549 Xenograft Tumor Volume, Mean (A549 xenografts; Day 18) [mm^3]	A549 Xenograft Tumor Volume, Mean (A549 xenografts; Day 21) [mm^3]	A549 Xenograft Tumor Volume, Mean (A549 xenografts; Day 25) [mm^3]	A549 Xenograft Tumor Volume, Mean (A549 xenografts; Day 28) [mm^3]	A549 Xenograft Tumor Volume, Mean (A549 xenografts; Day 32) [mm^3]	A549 Xenograft Tumor Volume, Mean (A549 xenografts; Day 36) [mm^3]	A549 Xenograft Tumor Volume, Mean (A549 xenografts; Day 40) [mm^3]	A549 Xenograft Tumor Volume, Mean (A549 xenografts; Day 43) [mm^3]	A549 Xenograft Tumor Volume, Mean (A549 xenografts; Day 47) [mm^3]	A549 Xenograft Tumor Volume, Mean (A549 xenografts; Day 50) [mm^3]	A549 Xenograft Tumor Volume, Mean (A549 xenografts; Day 54) [mm^3]	A549 Xenograft Tumor Volume, Mean (A549 xenografts; Day 57) [mm^3]	A549 Xenograft Tumor Volume, Mean (A549 xenografts; Day 61) [mm^3]	A549 Xenograft Tumor Volume, Mean (A549 xenografts; Day 64) [mm^3]	A549 Xenograft Tumor Volume, Mean (A549 xenografts; Day 68) [mm^3]	A549 Xenograft Tumor Volume, Mean (A549 xenografts; Day 71) [mm^3]	A549 Xenograft Tumor Volume, Mean (A549 xenografts; Day 75) [mm^3]	Percent Reduction of A549 Tumor Size on Day 75 (A549 xenografts; Day 75) [%]	further results
N.N.[Cl][Pt][Cl] [Cisplatin, cis-Diamminedichloroplatinum (II), reference compound]	85.43	94.63	124.68	137.74	210.75	238.78	283.12	310.61	367.44	412.68	405.18	428.84	478.35	482.77	478.95	529.51	520.83	564.57	535.33	−31.9	H1975 Xenograft Tumor Volume, Mean (H1975 xenografts; Day 7): 40.02 mm^3; H1975 Xenograft Tumor Volume, Mean (H1975 xenografts; Day 12): 90.76 mm^3; H1975 Xenograft Tumor Volume, Mean (H1975 xenografts; Day 15): 112.12 mm^3; H1975 Xenograft Tumor Volume, Mean (H1975 xenografts; Day 19): 172.5 mm^3; H1975 Xenograft Tumor Volume, Mean (H1975 xenografts; Day 22): 295.95 mm^3; H1975 Xenograft Tumor Volume, Mean (H1975 xenografts; Day 26): 595.06 mm^3; H1975 Xenograft Tumor Volume, Mean (H1975 xenografts; Day 29): 863.18 mm^3; H1975 Xenograft Tumor Volume, Mean (H1975 xenografts; Day 33): 1221.36 mm^3; H1975 Xenograft Tumor Volume, Mean (H1975 xenografts; Day 36): 1740.85 mm^3; H1975 Xenograft Tumor Volume, Mean (H1975 xenografts; Day 40): 2095.44 mm^3; H1975 Xenograft Tumor Volume, Mean (H1975 xenografts; Day 43): 2798.22 mm^3; Percent Reduction of H1975 Tumor Size on Day 43 (H1975 xenografts; Day 43): −19.6%
d(P-thio) ([2′-O-(2-methoxyethyl)]m5rU-([2′-O-(2-methoxyethyl)]rG-([2′-O-(2-methoxyethyl)]m5rU-([2′-O-(2-methoxyethyl)]mSrC-([2′-O-(2-methoxyethyl)]rA-T-A-T-T-m5C-m5C-T-G-G-A ([2′-O-(2-methoxyethyl)]m5rU-([2′-O-(2-methoxyethyl)]m5rC-([2′-O-(2-methoxyethyl)]m5rC-([2′-O-(2-methoxyethyl)]m5rU-([2′-O-(2-methoxyethyl)]m5rU) [eIF-4E ASO]	86.39	87.36	141.7	134.88	212.4	251.64	309.94	402.67	439.54	499.06	455.53	463.92	520.9	550.29	597.72	618.75	594.08	566.2	608.86	−22.6	sensitization of tumor cells to the growth- and proliferation-inhibiting action of cisplatin (A549 xenografts; A549 xenografts): sensitizes the tumor cells; H1975 Xenograft Tumor Volume, Mean (H1975 xenografts; Day 7): 45.83 mm^3; H1975 Xenograft Tumor Volume, Mean (H1975 xenografts; Day 12): 85.9 mm^3; H1975 Xenograft Tumor Volume, Mean (H1975 xenografts; Day 15): 121.6 mm^3; H1975 Xenograft Tumor Volume, Mean (H1975 xenografts; Day 19): 255.64 mm^3; H1975 Xenograft Tumor Volume, Mean (H1975 xenografts; Day 22): 376.84 mm^3; H1975 Xenograft Tumor Volume, Mean (H1975 xenografts; Day 26): 742.98 mm^3; H1975 Xenograft Tumor Volume, Mean (H1975 xenografts; Day 29): 1100.19 mm^3; H1975 Xenograft Tumor Volume, Mean (H1975 xenografts; Day 33): 1485.65 mm^3; H1975 Xenograft Tumor Volume, Mean (H1975 xenografts; Day 36): 2164.31 mm^3; H1975 Xenograft Tumor Volume, Mean (H1975 xenografts; Day 40): 2901.75 mm^3; H1975 Xenograft Tumor Volume, Mean (H1975 xenografts; Day 43): 3881.36 mm^3; Percent Reduction of H1975 Tumor Size on Day 43 (H1975 xenografts; Day 43): 11.5%; sensitization of tumor cells to the growth- and proliferation-inhibiting action of cisplatin (H1975 xenografts; H1975 xenografts): sensitizes the tumor cells
